Reference: paper PMC9374667 (Communications Biology, 2022)
Values joined by “and” are separate entries in the source; they are usually repeats but may differ in a detail not shown here. Identical values can stand only once.

Legend:
[1] = In vivo pharmacokinetics studies after gavage; conditions: male, SD, rat, plasma, po
Method: The pharmacokinetic parameters were calculated by the statistical moment method of non-atrioventricular model.
Blood samples (0.5 mL) were collected from the retro-orbital venous plexus at appropriate time points and placed in collection tubes with anticoagulants. Plasma was obtained from the blood samples by centrifuged (4000 rpm, 10 min, 4 °C) and stored at −20 °C until analysis. 400 µL of acetonitrile was added to 200 µL of rat plasmas, and vortexed for 90 s and finally centrifuged at 12,000 rpm for about 10 min. 20 µL of the supernatant was used to determinate the concentration of berberine in plasma by using the liquid chromatography-mass spectrometry (Waters XBridge, Waters, USA).
The maximum peak concentration (Cmax) and the time of reaching Cmax (Tmax) can be obtained from the measured data. The area under the concentration-time curve (AUC0→t) was estimated by the trapezoidal summation. The area under the curve from time zero to infinity (AUC0→∞) was also determined..

TBK1 [2] = biological target: T1, TBK1 (Mus musculus, UniProt Q9WUN2); assay: TBK1-knockdown 3T3-L1 adipocytes (siRNA; western blotting, immunofluorescence); assay type: cell-based, Murine; design: host or cells: differentiated 3T3-L1 adipocytes (Lipofectamine 2000); TBK1 (western blotting, Figure 9b) / p-AMPK (western blotting, Figure 9c) / UCP1 (western blotting, Figure 9d): unit not given here; conditions: for MitoTracker (immunofluorescence, Figure 9f) / UCP1 (immunofluorescence, Figure 9g): replicates 1-12
T1 sequence (Q9WUN2 1-729): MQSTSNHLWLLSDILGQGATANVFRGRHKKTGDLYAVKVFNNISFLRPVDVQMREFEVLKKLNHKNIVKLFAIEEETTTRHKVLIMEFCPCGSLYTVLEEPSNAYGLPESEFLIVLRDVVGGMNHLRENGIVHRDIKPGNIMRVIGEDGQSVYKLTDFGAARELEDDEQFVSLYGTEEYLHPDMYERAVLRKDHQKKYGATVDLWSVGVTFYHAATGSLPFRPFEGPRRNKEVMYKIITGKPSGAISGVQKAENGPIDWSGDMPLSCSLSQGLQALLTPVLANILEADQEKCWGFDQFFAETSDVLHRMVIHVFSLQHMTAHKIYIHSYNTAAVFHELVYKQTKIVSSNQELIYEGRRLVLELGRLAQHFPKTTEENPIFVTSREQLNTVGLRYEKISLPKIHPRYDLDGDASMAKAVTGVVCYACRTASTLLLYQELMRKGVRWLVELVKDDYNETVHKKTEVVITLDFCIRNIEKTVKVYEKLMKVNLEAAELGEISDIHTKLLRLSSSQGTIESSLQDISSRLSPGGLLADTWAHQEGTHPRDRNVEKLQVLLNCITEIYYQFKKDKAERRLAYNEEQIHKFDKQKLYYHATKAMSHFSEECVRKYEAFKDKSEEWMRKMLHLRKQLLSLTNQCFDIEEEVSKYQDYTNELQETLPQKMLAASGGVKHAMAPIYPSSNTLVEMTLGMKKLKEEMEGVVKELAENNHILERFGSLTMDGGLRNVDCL
Method: Small interference RNA transfection (siRNA) was performed using 4 μM TBK1 siRNA (siTBK1) or 4 μM […]ε) or corresponding NC siRNA (siNC). The 3T3-L1 adipocytes were washed with PBS for 3 times, fixed with 4% paraformaldehyde solution for 30 min, and then washed again for 3 times. […] The cells were then incubated overnight at 4 °C with the appropriate primary antibodies (1:100 dilution). The next day, the 3T3-L1 adipocytes were washed and incubated at room temperature with goat anti-rabbit secondary antibody or goat anti-mouse secondary antibody (1:1000 dilution) for 2 h and washed with PBS for 3 times. The nuclei were stained with DAPI. […] Fluorescence images were taken using a laser confocal microscope (SP8, Leica, Germany). At least four images per section were acquired for quantification, and the mean intensity were evaluated using ImageJ. The adipose tissue or 3T3-L1 adipocytes were homogenized by ultrasound in an ice-cold RIPA lysis buffer containing 1% PMSF and centrifuged at 12,000 × g at 4°C for 15 min to collect the supernatant. The BCA protein assay kit (Beyotime, Shanghai, China) was used to detect the total protein concentration. Proteins (20-30 μg) of the sample were separated by 10% SDS-PAGE gel and transferred onto polyvinylidene difluoride (PVDF) membranes. Then the PVDF membranes were blocked in 5% skim milk powder in TBS containing 1% Tween-20 (TBST) for 2 h at room temperature and washed with TBST for 3 times. […] After washing, the membranes were incubated with horseradish peroxidase-conjugated secondary antibodies (in 5% skim milk powder) for 1 h at room temperature. Finally, the membranes were treated with enhanced chemiluminescence agents (Tanon, Shanghai, China) and the signals were monitored using the Tanon 5200 multi chemiluminescent imaging system (Tanon, Shanghai, China).

TBK1 [3] = biological target: T1, TBK1; assay: TBK1 activity assay in BAT; assay type: in vivo, mice; design: The adipose tissue was ultrasound-crushed in PBS buffer solution (1:9 w/v) to prepare the tissue homogenate; from tissue; host or cells: epididymal white adipose tissue (eWAT) and brown adipose tissue (BAT) of C57BLKS WT and db/db mice; conditions: for the expression of TBK1 in BAT of db/db mice: Figure 6m, individual values
Method: The adipose tissue was ultrasound-crushed in PBS buffer solution (1:9 w/v) to prepare the tissue homogenate. The tissue homogenate was centrifuged at 5000 × g for 10 min, and the supernatant was taken for detection. Briefly, samples or standards were added to the microplates pre-coated with IKKε antibody or TBK1 antibody. Then horseradish peroxidase (HRP) labeled antibody was added and incubated at 37 °C for 60 min. After thorough washing, the 3,3′,5,5′-tetramethylbenzidine (TMB) substrate was used for color development, and the absorbance (OD value) was determined at 450 nm.

Row | Compound | Tmax [1] [min] | TBK1 (western blotting, Figure 9b) (TBK1 [2]; 10μM BJ) | UCP1 (western blotting, Figure 9d) (TBK1 [2]; 10μM BJ) | p-AMPK (western blotting, Figure 9c) (TBK1 [2]; 10μM BJ) | MitoTracker (immunofluorescence, Figure 9f) (TBK1 [2]; 10μM BJ) | UCP1 (immunofluorescence, Figure 9g) (TBK1 [2]; 10μM BJ) | Expression of p-AMPKα and UCP1 (TBK1 [2]; 3T3-L1 adipocytes, BJ alone, 24 h) | Expression levels of p-AMPKα and UCP1 (TBK1 [2]; TBK1-knockdown 3T3-L1 adipocytes treated with BJ, vs TBK1-knockdown) | TBK1 (western blotting, Figure 9b) (TBK1 [2]; siTBK1+10μM BJ) | UCP1 (western blotting, Figure 9d) (TBK1 [2]; siTBK1+10μM BJ) | p-AMPK (western blotting, Figure 9c) (TBK1 [2]; siTBK1+10μM BJ) | MitoTracker (immunofluorescence, Figure 9f) (TBK1 [2]; siTBK1+10μM BJ) | UCP1 (immunofluorescence, Figure 9g) (TBK1 [2]; siTBK1+10μM BJ) | the expression of TBK1 in BAT of db/db mice (TBK1 [3]; db/db+BJ 75mg/kg) | the expression of TBK1 in BAT of db/db mice (TBK1 [3]; db/db+BJ 150mg/kg) | TBK1 activity and expression levels in BAT (TBK1 [3]; db/db mice, both doses of BJ)
1 | COc1ccc2cc3[n+](cc2c1OC)CCc1cc2c(cc1-3)OCO2 [BBR, Berberine chloride dihydrate] | 30 ± 4.8 |  |  |  |  |  |  |  |  |  |  |  |  |  |  | 
2 | CC(C)Cc1ccc(C(C)C(=O)[O-])cc1.COc1ccc2cc3[n+](cc2c1OC)CCc1cc2c(cc1-3)OCO2.O.O.O.O [BJ, berberine-ibuprofen] |  | 0.1548 and 0.1822 and 0.1679 | 0.6444 and 0.6902 and 0.5582 | 0.3674 and 0.4043 and 0.3553 | 22.957 and 24.343 and 25.025 and 18.793 and 24.708 and 21.147 and 28.941 and 23.595 and 21.858 and 24.262 and 23.917 and 27.936 | 28.366 and 25.764 and 25.784 and 25.906 and 27.454 and 28.774 and 34.011 and 26.939 and 25.523 and 31.625 and 28.718 and 27.261 | significantly increased the expression of p-AMPKα and UCP1 | not significantly changed | 0.1211 and 0.0965 and 0.1123 | 0.7411 and 0.669 and 0.5981 | 0.4095 and 0.4234 and 0.498 | 25.218 and 30.785 and 30.877 and 30.71 and 22.848 and 22.479 and 31.768 and 31.566 and 27.335 and 20.91 and 29.763 and 33.52 | 30.066 and 28.142 and 35.211 and 34.925 and 27.446 and 30.425 and 28.118 and 35.655 and 39.617 and 27.871 and 25.612 and 40.285 | 0.366 U/g and 0.397 U/g and 0.402 U/g and 0.336 U/g and 0.384 U/g and 0.344 U/g | 0.338 U/g and 0.377 U/g and 0.358 U/g and 0.428 U/g and 0.335 U/g and 0.369 U/g | had no effect
